A short description of data set [1]: pKa2 (heterocyclic ring). Conditions: read-out: pKa2. Type of data set: physicochemical.
In data set [2] the target is Histamine H1 receptor (Cavia porcellus, UniProt P31389). Briefly: Tested for affinity towards H1 receptor in guinea pig ileum. Conditions: read-out: pA2 (converted). Type of data set: tissue-based.
A short description of data set [3]: pKa1 (aliphatic amine). Format: physicochemical. The conditions noted are these: read-out: pKa1.
The target in data set [4] is Histamine H2 receptor (Cavia porcellus) (UniProt P47747). In words: Histamine H2 receptor activity was determined on the isolated spontaneously beating guinea pig right atrium. Conditions: Cardiac atrium. Type of data set: tissue-based.
Sequence of Histamine H2 receptor (Cavia porcellus) (P47747 whole entry): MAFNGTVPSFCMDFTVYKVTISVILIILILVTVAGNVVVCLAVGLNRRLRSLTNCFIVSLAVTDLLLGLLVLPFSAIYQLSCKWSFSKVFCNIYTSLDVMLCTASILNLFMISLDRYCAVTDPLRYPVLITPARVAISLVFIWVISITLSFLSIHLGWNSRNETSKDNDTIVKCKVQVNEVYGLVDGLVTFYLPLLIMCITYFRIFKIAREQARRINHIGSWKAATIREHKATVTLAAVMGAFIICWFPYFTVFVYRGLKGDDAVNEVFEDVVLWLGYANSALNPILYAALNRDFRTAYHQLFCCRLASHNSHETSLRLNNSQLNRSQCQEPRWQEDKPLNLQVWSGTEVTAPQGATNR
Data set [5] has as its target Histamine H3 receptor (Cavia porcellus) (UniProt Q9JI35). Briefly: Tested for affinity towards Histamine H3 receptor in electrically stimulated guinea pig jejunum. Format: tissue-based.
For data set [6], the target named is Histamine H2 receptor (Rattus norvegicus, UniProt P25102). Briefly: Affinity to the Histamine H2 receptor was determined expressed in CHO cell using [125I]iodoaminopotentidine as radioligand. Format: cell-based.
Sequence of Histamine H2 receptor (P25102 whole entry): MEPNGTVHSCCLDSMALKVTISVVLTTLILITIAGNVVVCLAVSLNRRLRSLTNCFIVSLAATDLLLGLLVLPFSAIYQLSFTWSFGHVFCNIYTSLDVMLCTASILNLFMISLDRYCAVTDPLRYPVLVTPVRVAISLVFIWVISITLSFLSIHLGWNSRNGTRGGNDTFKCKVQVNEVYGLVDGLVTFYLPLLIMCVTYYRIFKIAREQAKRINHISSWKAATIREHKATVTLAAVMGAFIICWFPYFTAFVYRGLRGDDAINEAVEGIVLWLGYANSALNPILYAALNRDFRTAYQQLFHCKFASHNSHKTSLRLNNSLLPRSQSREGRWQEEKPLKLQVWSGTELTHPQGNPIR

Sequence of Histamine H1 receptor (P31389 whole entry): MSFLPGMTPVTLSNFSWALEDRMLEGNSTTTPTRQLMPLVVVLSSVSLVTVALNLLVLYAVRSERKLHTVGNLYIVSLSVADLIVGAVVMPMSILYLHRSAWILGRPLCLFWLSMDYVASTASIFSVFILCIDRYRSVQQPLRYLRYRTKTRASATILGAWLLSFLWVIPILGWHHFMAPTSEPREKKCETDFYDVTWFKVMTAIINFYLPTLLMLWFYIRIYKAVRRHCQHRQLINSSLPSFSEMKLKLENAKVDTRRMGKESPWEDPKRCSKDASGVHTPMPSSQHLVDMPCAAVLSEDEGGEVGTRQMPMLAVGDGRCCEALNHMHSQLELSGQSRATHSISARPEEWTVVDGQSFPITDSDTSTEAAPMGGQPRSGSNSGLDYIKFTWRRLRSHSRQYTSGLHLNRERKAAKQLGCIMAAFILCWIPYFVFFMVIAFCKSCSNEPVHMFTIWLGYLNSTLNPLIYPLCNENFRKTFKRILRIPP
Sequence of Histamine H3 receptor (Cavia porcellus) (Q9JI35 whole entry): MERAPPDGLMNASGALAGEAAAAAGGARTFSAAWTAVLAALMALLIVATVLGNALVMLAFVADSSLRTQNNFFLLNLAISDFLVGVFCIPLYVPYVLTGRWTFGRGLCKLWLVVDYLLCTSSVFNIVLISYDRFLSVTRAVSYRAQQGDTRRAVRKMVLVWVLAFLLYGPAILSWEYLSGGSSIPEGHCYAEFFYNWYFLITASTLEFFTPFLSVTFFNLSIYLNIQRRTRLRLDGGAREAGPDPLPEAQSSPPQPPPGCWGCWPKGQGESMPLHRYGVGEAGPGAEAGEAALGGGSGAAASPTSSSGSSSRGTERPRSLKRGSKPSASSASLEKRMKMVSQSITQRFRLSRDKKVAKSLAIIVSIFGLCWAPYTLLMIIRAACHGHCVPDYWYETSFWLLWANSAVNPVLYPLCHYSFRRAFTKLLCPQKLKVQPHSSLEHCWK

For the molecule `Cc1nc(N)[se]c1CCN`, the pKa was 5.78 in data set [1] and 9.21 in data set [3]. The Kb in data set [2] was 141 µM. Besides, the pD2 worked out at 6.41 in data set [4] and 4.44 in data set [5]. The dissociation constant (Kd) in data set [6] is 9.77 µM.

In the case of `Cc1nc(N)sc1CCN` [AMTHAMINE], the pKa in data set [1] stood at 5.4; in data set [3] it was 9.15. In data set [6], the equilibrium dissociation constant (Kd) was 11.5 µM.

Take `NCCc1c[nH]cn1` [HISTAMINE]: the pKa was determined as 5.93 in data set [1] and 9.32 in data set [3]. Also, the Kd in data set [6] is 117 µM.

As usually defined, the Kd is the free concentration of one partner at which half of the binding sites on the other are occupied at equilibrium, for simple one-to-one binding. A high value points to weaker binding.
